Assay results reported in the supplement of paper PMC10307832.

Key:
Assay in all cases: relative viability (nuclei count vs DMSO), 5 days (fraction); higher = more cells survive
BI-D1870 = compound: CC(C)CCN1c2nc(Nc3cc(F)c(O)c(F)c3)ncc2N(C)C(=O)C1C [BI-D1870]
Method in brief: (§1)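 For viability, nuclei in each treated well were divided by nuclei in vehicle wells and the median across plates was taken. Lung cancer cell lines in 1536-well plates were pinned with five library-drug doses (not always all listed) spaced by √10, cultured 5 days without medium change, and imaged at 4× after Hoechst staining, with plates passing only at control CV below 25% and at least one doubling.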

Zebularine = compound: O=c1ncccn1[C@@H]1O[C@H](CO)[C@@H](O)[C@H]1O [Zebularine]
Method in brief: as §1

Zebularine + Pemetrexed = compound: O=c1ncccn1[C@@H]1O[C@H](CO)[C@@H](O)[C@H]1O [Zebularine] + Nc1nc2[nH]cc(CCc3ccc(C(=O)N[C@@H](CCC(=O)O)C(=O)O)cc3)c2c(=O)[nH]1 [Pemetrexed] (partner 0.2 µM)
Method in brief: (§2)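 Dosing by pin tool came one day after lung cancer cell lines were seeded in 1536-well plates, using either one drug or a fixed anchor-drug dose plus five library-drug doses (not always all listed) in √10 steps. After 5 days, nuclei were counted on 4× images. Relative viability is treated-well nuclei count divided by vehicle-well nuclei count, and values are medians of duplicate plates.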

BI-D1870 + Alpelisib = compound: CC(C)CCN1c2nc(Nc3cc(F)c(O)c(F)c3)ncc2N(C)C(=O)C1C [BI-D1870] + Cc1nc(NC(=O)N2CCC[C@H]2C(N)=O)sc1-c1ccnc(C(C)(C)C(F)(F)F)c1 [Alpelisib] (partner 2 µM)
Method in brief: as §2

Row | Cell Line | relative viability (BI-D1870; 0.04 µM) | relative viability (BI-D1870; 0.1265 µM) | relative viability (BI-D1870; 0.4 µM) | relative viability (BI-D1870; 1.265 µM) | relative viability (BI-D1870; 4 µM) | relative viability (Zebularine; 1 µM) | relative viability (Zebularine; 3.162 µM) | relative viability (Zebularine; 10 µM) | relative viability (Zebularine; 31.62 µM) | relative viability (Zebularine; 100 µM) | relative viability (Zebularine + Pemetrexed; first compound 1 µM) | relative viability (Zebularine + Pemetrexed; first compound 3.162 µM) | relative viability (Zebularine + Pemetrexed; first compound 10 µM) | relative viability (Zebularine + Pemetrexed; first compound 31.62 µM) | relative viability (Zebularine + Pemetrexed; first compound 100 µM) | relative viability (BI-D1870 + Alpelisib; first compound 0.04 µM) | relative viability (BI-D1870 + Alpelisib; first compound 0.1265 µM) | relative viability (BI-D1870 + Alpelisib; first compound 0.4 µM) | relative viability (BI-D1870 + Alpelisib; first compound 1.265 µM) | relative viability (BI-D1870 + Alpelisib; first compound 4 µM)
1 | 201T | 0.989 | 0.962 | 0.975 | 0.985 | 0.959 | 1.08 | 0.986 | 0.776 | 1 | 0.947 | 0.359 | 0.343 | 0.35 | 0.311 | 0.271 | 1 | 0.935 | 0.976 | 1 | 0.951
2 | A549 | 1.06 | 0.908 | 0.975 | 1.04 | 0.848 | 1.08 | 0.913 | 0.519 | 0.75 | 0.155 |  |  |  |  |  | 0.907 | 0.639 | 0.891 | 0.609 | 0.477
3 | A-427 | 1.18 | 0.945 | 0.997 | 1.04 | 0.801 | 1.11 | 0.898 | 0.65 | 0.55 | 0.267 | 1.08 | 0.991 | 0.95 | 0.538 | 0.294 | 1.13 | 1.02 | 0.992 | 1.12 | 1.16
4 | ABC-1 | 0.949 | 0.887 | 0.92 | 1.01 | 0.761 | 0.922 | 0.724 | 0.687 | 0.641 | 0.494 |  |  |  |  |  | 1.18 | 0.972 | 1.12 | 1.19 | 0.829
5 | BEN | 1.03 | 0.915 | 1.05 | 1.07 | 0.845 | 0.913 | 0.788 | 0.45 | 0.378 | 0.333 | 0.943 | 0.636 | 0.584 | 0.562 | 0.306 | 1.1 | 0.914 | 1 | 1.13 | 0.884
6 | CAL-12T | 1.14 | 0.87 | 0.946 | 0.97 | 0.682 | 1.03 | 0.871 | 0.793 | 0.993 | 0.671 | 1.43 | 1.1 | 0.914 | 1.18 | 0.47 | 1.53 | 1.14 | 1.11 | 1.05 | 0.793
7 | Calu-6 | 1.11 | 0.865 | 0.998 | 0.904 | 0.676 | 1.18 | 0.99 | 0.747 | 0.7 | 0.246 |  |  |  |  |  | 1 | 0.843 | 0.951 | 0.7 | 0.644
8 | ChaGo-K-1 | 1.05 | 0.991 | 0.9 | 0.962 | 0.868 | 1.03 | 0.97 | 0.525 | 0.317 | 0.244 | 0.269 | 0.257 | 0.254 | 0.242 | 0.203 |  |  |  |  | 
9 | EBC-1 | 0.995 | 0.889 | 0.839 | 0.654 | 0.361 | 1.1 | 0.811 | 0.842 | 1.11 | 0.974 |  |  |  |  |  | 0.925 | 0.625 | 0.786 | 0.475 | 0.297
10 | IA-LM | 1.13 | 0.863 | 0.913 | 1.05 | 0.646 | 1.12 | 0.809 |  | 1.14 | 0.863 |  |  |  |  |  | 0.687 | 0.673 | 0.759 | 0.765 | 0.446
11 | NCI-H522 | 0.974 | 1.15 | 1.04 | 1.08 | 0.841 | 0.9 | 1.08 | 0.87 | 0.928 | 0.847 | 0.888 | 1.1 | 0.967 | 1.03 | 0.95 |  |  |  |  | 
12 | NCI-H727 | 1.1 | 0.888 | 0.934 | 0.79 | 0.91 | 0.906 | 0.811 | 0.726 | 0.976 | 0.92 |  |  |  |  |  | 0.591 | 0.448 | 0.526 | 0.63 | 0.445
13 | NCI-H1299 | 1.05 | 1.01 | 1.04 | 1.04 | 0.863 | 1.02 | 0.97 | 0.858 | 1.06 | 0.454 |  |  |  |  |  | 1.05 | 1.04 | 1.07 | 1.15 | 0.993
14 | NCI-H1648 | 0.877 | 0.777 | 0.729 | 0.89 | 0.869 | 1.16 | 1.06 | 0.563 | 0.668 | 0.708 | 0.652 | 0.613 | 0.518 | 0.804 | 0.683 |  |  |  |  | 
15 | NCI-H1650 | 0.9 | 0.765 | 1 | 0.96 | 0.807 | 1.03 | 0.904 | 0.766 | 1.15 | 0.727 | 0.381 | 0.35 | 0.387 | 0.523 | 0.33 |  |  |  |  | 
16 | NCI-H1703 | 0.92 | 0.708 | 0.905 | 1.02 | 0.806 | 0.856 | 0.815 | 0.606 | 0.899 | 0.667 |  |  |  |  |  | 0.263 | 0.341 | 0.301 | 0.379 | 0.305
17 | NCI-H2342 | 0.983 | 0.919 | 1 | 1.09 | 1.15 | 1.01 | 0.953 | 0.757 | 0.984 | 0.853 | 0.795 | 0.73 | 0.572 | 0.749 | 0.628 |  |  |  |  | 
18 | SW 900 | 1.03 | 0.95 | 0.864 | 1.02 | 0.894 | 1.04 | 0.839 | 0.661 | 0.843 | 0.651 | 0.534 | 0.483 |  | 0.53 | 0.41 |  |  |  |  | 
